Laboratory results published in ChEMBL document CHEMBL1268888, “Antiviral activity of 2,3'-anhydro and related pyrimidine nucleosides against hepatitis B virus” (Bioorg Med Chem Lett, 2010).
In brackets after ≈: the same amount, converted by molar mass.

Tests used:
Hepatitis B virus [1] = experiment: Antiviral activity against HBV infected in duck primary hepatocytes at 10 ug/ml; format: functional; conditions: Hepatocyte
Hepatitis B virus [2] = experiment: Antiviral activity against HBV infected in duck primary hepatocytes; format: functional, organism-based; conditions: Hepatocyte
Hepatitis B virus [3] = experiment: Antiviral activity against HBV infected in human 2.2.15 cell at 10 ug/ml; format: functional, organism-based; conditions: HepG2 2.2.15
Hepatitis B virus [4] = experiment: Antiviral activity against HBV infected in human 2.2.15 cell; format: functional, organism-based; conditions: HepG2 2.2.15
[5] = Cytotoxicity against human HuH7 cells; format: cell-based, Huh-7
[6] = Stability of the compound in PBS buffer at physiological pH and 37 degC upto 48 hrs; format: physicochemical
[7] = Stability of the compound in fetal bovine serum at 37 degC after 24 hrs; format: ADME; conditions: cattle

SMILES | inhibition at 10 µg/mL (Hepatitis B virus [1]) | EC50 (Hepatitis B virus [2]) | inhibition at 10 µg/mL (Hepatitis B virus [3]) | EC50 (Hepatitis B virus [4]) | CC50 [5] | Stability [6] | Stability [7]
Cc1cn([C@H]2C[C@@H](OS(C)(=O)=O)[C@@H](CO)O2)c(=O)[nH]c1=S | 70% | 2.5 µg/mL (≈ 7.43 µM) | 45% | > 10 µg/mL | > 200 µg/mL |  | 
CCc1cn2c(nc1=O)O[C@H]1C[C@H]2O[C@@H]1CO | 32% |  | 51% | 10 µg/mL (≈ 42 µM) | > 200 µg/mL | Stable | Stable
O=c1ccn([C@H]2C[C@H](O)[C@@H](CO)O2)c(=O)[nH]1 [DEOXYURIDINE] |  |  | 0% |  | > 200 µg/mL |  | 
CCc1cn([C@H]2C[C@H](O)[C@@H](CO)O2)c(=O)[nH]c1=O [EDOXUDINE] |  |  | 40% | > 10 µg/mL | > 200 µg/mL |  | 
Cc1cn([C@H]2C[C@H](O)[C@@H](CO)O2)c(=O)[nH]c1=O [DOXRIBTIMINE] |  |  | 0% |  | > 200 µg/mL |  | 
Nc1ccn([C@@H]2CS[C@H](CO)O2)c(=O)n1 [LAMIVUDINE] | 96% | 0.05 µg/mL (≈ 0.218 µM) | 88% | 0.2 µg/mL (≈ 0.872 µM) | > 200 µg/mL |  | 
CCc1cn2c(nc1=O)O[C@H]1[C@H](F)[C@H]2O[C@@H]1CO | 65% | 2.5 µg/mL (≈ 9.76 µM) | 53% | 10 µg/mL (≈ 39 µM) | > 200 µg/mL | Stable | Stable
Cc1cn([C@H]2C[C@@H](O)[C@@H](CO)O2)c(=O)[nH]c1=O |  |  |  |  | > 200 µg/mL |  | 
O=c1nc2n(cc1C(F)(F)F)[C@H]1C[C@H](O2)[C@@H](CO)O1 | 35% | > 10 µg/mL | 25% |  | > 200 µg/mL | Stable | Stable
CCc1cn([C@@H]2O[C@H](CO)[C@@H](O)[C@@H]2F)c(=O)[nH]c1=O |  |  | 90% | < 10 µg/mL | > 200 µg/mL |  | 
O=c1[nH]c(=O)n([C@H]2C[C@H](O)[C@@H](CO)O2)cc1C(F)(F)F [TRIFLURIDINE] |  |  | 0% |  | > 200 µg/mL |  | 
O=c1nc2n(cc1F)[C@H]1C[C@H](O2)[C@@H](CO)O1 | 30% |  | 0% |  | > 200 µg/mL | Stable | Stable
O=c1ccn2c(n1)O[C@H]1C[C@H]2O[C@@H]1CO | 67% | 2.5 µg/mL (≈ 11.9 µM) | 65% | 5 µg/mL (≈ 23.8 µM) | > 200 µg/mL | Stable | Stable
Cc1cn2c(nc1=O)O[C@H]1C[C@H]2O[C@@H]1CO | 56% | 10 µg/mL (≈ 44.6 µM) | 54% | 10 µg/mL (≈ 44.6 µM) | > 200 µg/mL | Stable | Stable
